# “And” between values parts separate entries of the source, which are not always exact repeats. Equal values may be shown once.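 These data come from cells grown in 96-well plates and exposed to compound for 48 hours at five concentrations. Abbreviation: GI50, concentration required for 50% inhibition of growth. TGI is the concentration that stops growth completely.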
# Assays:
# Test in all cases: NCI-60 cell line screen, 48 h
# [1] = system: 786-0 renal
# [2] = system: A498 renal
# [3] = system: A549 NSCLC
# [4] = system: ACHN renal
# [5] = system: BT-549 breast
# [6] = system: CAKI-1 renal
# [7] = system: CCRF-CEM leukemia
# [8] = system: COLO 205 colon
# [9] = system: DU-145 prostate
# [10] = system: EKVX NSCLC
# [11] = system: HCC-2998 colon
# [12] = system: HCT-116 colon
# [13] = system: HCT-15 colon
# [14] = system: HL-60(TB) leukemia
# [15] = system: HOP-62 NSCLC
# [16] = system: HOP-92 NSCLC
# [17] = system: HS 578T breast
# [18] = system: HT29 colon
# [19] = system: IGROV1 ovarian
# [20] = system: K-562 leukemia
# [21] = system: KM12 colon
# [22] = system: LOX IMVI melanoma
# [23] = system: M14 melanoma
# [24] = system: MALME-3M melanoma
# [25] = system: MCF7 breast
# [26] = system: MDA-MB-231 breast
# [27] = system: MDA-MB-435
# [28] = system: MDA-N
# [29] = system: MOLT-4 leukemia
# [30] = system: NCI-H226 lung
# [31] = system: NCI-H23 lung
# [32] = system: NCI-H460 lung
# [33] = system: NCI-H522 lung
# [34] = system: NCI/ADR-RES ovarian
# [35] = system: OVCAR-3 ovarian
# [36] = system: OVCAR-4 ovarian
# [37] = system: OVCAR-5 ovarian
# [38] = system: OVCAR-8 ovarian
# [39] = system: PC-3 prostate
# [40] = system: RPMI-8226 leukemia
# [41] = system: RXF 393 renal
# [42] = system: SF-268 CNS
# [43] = system: SF-295 CNS
# [44] = system: SF-539 CNS
# [45] = system: SK-MEL-2 melanoma
# [46] = system: SK-MEL-28 melanoma
# [47] = system: SK-MEL-5 melanoma
# [48] = system: SN12C renal
# [49] = system: SNB-19 CNS
# [50] = system: SNB-75 CNS
# [51] = system: SR leukemia
# [52] = system: SW-620 colon
# [53] = system: TK-10 renal
# [54] = system: U251 CNS
# [55] = system: UACC-257 melanoma
# [56] = system: UO-31 renal
# [57] = system: SK-OV-3 ovarian
# [58] = system: UACC-62 melanoma
smiles,measurement,setting,value
C=C(NC(=O)C(=C)NC(=O)c1ccc2c(n1)-c1coc(n1)C(=C)NC(=O)C(=C)NC(=O)c1nc(oc1C)C(=C)NC(=O)C(C(C)(C)O)NC(=O)C(=C)NC(=O)c1coc(n1)/C(=C/C)NC(=O)[C@H]([C@@H](C)O)NC(=O)c1csc-2n1)C(N)=O (some centres not stated),TGI,[1],> 87.5 µM
same,TGI,[2],> 87.5 µM
same,TGI,[3],> 87.5 µM
same,TGI,[4],> 87.5 µM
same,TGI,[5],> 87.5 µM
same,TGI,[6],> 87.5 µM
same,TGI,[7],> 87.5 µM
same,TGI,[8],> 87.5 µM
same,TGI,[9],> 87.5 µM
same,TGI,[10],> 87.5 µM
same,TGI,[11],> 87.5 µM
same,TGI,[12],> 87.5 µM
same,TGI,[13],> 87.5 µM
same,TGI,[14],> 87.5 µM
same,TGI,[15],> 87.5 µM
same,TGI,[16],> 87.5 µM
same,TGI,[17],> 87.5 µM
same,TGI,[18],> 8.75 µM
same,TGI,[19],> 87.5 µM
same,TGI,[20],> 87.5 µM
same,TGI,[21],> 87.5 µM
same,TGI,[22],> 87.5 µM
same,TGI,[23],> 87.5 µM
same,TGI,[24],> 87.5 µM
same,TGI,[25],> 87.5 µM
same,TGI,[26],> 87.5 µM
same,TGI,[27],> 87.5 µM
same,TGI,[28],> 87.5 µM
same,TGI,[29],> 87.5 µM
same,TGI,[30],> 87.5 µM
same,TGI,[31],> 87.5 µM
same,TGI,[32],> 87.5 µM
same,TGI,[33],> 87.5 µM
same,TGI,[34],> 87.5 µM
same,TGI,[35],> 87.5 µM
same,TGI,[36],> 87.5 µM
same,TGI,[37],> 87.5 µM
same,TGI,[38],> 87.5 µM
same,TGI,[39],> 87.5 µM
same,TGI,[40],> 87.5 µM
same,TGI,[41],> 87.5 µM
same,TGI,[42],> 87.5 µM
same,TGI,[43],> 87.5 µM
same,TGI,[44],> 87.5 µM
same,TGI,[45],> 87.5 µM
same,TGI,[46],> 87.5 µM
same,TGI,[47],> 87.5 µM
same,TGI,[48],> 87.5 µM
same,TGI,[49],> 87.5 µM
same,TGI,[50],> 87.5 µM
same,TGI,[51],> 87.5 µM
same,TGI,[52],> 87.5 µM
same,TGI,[53],> 87.5 µM
same,TGI,[54],> 87.5 µM
same,TGI,[55],> 87.5 µM
same,TGI,[56],> 87.5 µM
COc1ccc(-c2nc3ccccc3s2)cc1OC,TGI,[1],> 100 µM
same,TGI,[3],> 100 µM
same,TGI,[4],> 100 µM
same,TGI,[5],57.6 µM
same,TGI,[7],> 100 µM
same,TGI,[8],> 100 µM
same,TGI,[12],> 100 µM
same,TGI,[13],> 100 µM
same,TGI,[14],> 100 µM
same,TGI,[15],> 100 µM
same,TGI,[16],> 100 µM
same,TGI,[17],> 100 µM
same,TGI,[18],> 100 µM
same,TGI,[20],> 100 µM
same,TGI,[21],> 100 µM
same,TGI,[22],> 100 µM
same,TGI,[23],> 100 µM
same,TGI,[26],> 100 µM
same,TGI,[27],> 100 µM
same,TGI,[28],> 100 µM
same,TGI,[29],> 100 µM
same,TGI,[31],> 100 µM
same,TGI,[32],59.8 µM
same,TGI,[34],> 100 µM
same,TGI,[36],> 100 µM
same,TGI,[37],> 100 µM
same,TGI,[38],> 100 µM
same,TGI,[39],> 100 µM
same,TGI,[40],> 100 µM
same,TGI,[43],88.2 µM
same,TGI,[44],> 100 µM
same,TGI,[45],> 100 µM
same,TGI,[46],> 100 µM
same,TGI,[47],39.1 µM
same,TGI,[57],62.9 µM
same,TGI,[48],> 100 µM
same,TGI,[49],28.3 µM
same,TGI,[50],> 100 µM
same,TGI,[51],> 100 µM
same,TGI,[52],> 100 µM
same,TGI,[54],> 100 µM
same,TGI,[55],> 100 µM
same,TGI,[58],> 100 µM
same,TGI,[56],> 100 µM
OCC(O)C(O)C(O)C(/C=N\Nc1ncnc2c(Br)cc(Br)cc12)=N/Nc1ncnc2c(Br)cc(Br)cc12 (configuration not stated),GI50,[1],2.73 µM and 5.76 µM
same,GI50,[2],22.5 µM and > 100 µM
same,TGI,[2],38.8 µM and > 100 µM
same,GI50,[3],5.04 µM and 15.4 µM
same,TGI,[3],21.6 µM and > 100 µM
same,TGI,[4],33 µM and > 100 µM
same,TGI,[6],26.7 µM and > 100 µM
same,TGI,[8],13 µM and 22 µM
same,TGI,[9],14.7 µM and > 100 µM
same,GI50,[10],1.88 µM and 4.49 µM
same,GI50,[12],19.1 µM and 3.44 µM
same,TGI,[12],> 100 µM
same,GI50,[14],6.47 µM and 2.8 µM
same,TGI,[14],> 100 µM
same,GI50,[15],2.05 µM and 9.09 µM
same,TGI,[17],> 100 µM
same,TGI,[18],42 µM and > 100 µM
same,TGI,[19],10.1 µM and > 100 µM
same,TGI,[20],26.9 µM and > 100 µM
same,TGI,[21],70.8 µM and > 100 µM
same,TGI,[22],31.4 µM and > 100 µM
same,TGI,[23],28.3 µM and 44.2 µM
same,TGI,[24],14.4 µM and > 100 µM
same,TGI,[25],37.4 µM and > 100 µM
same,TGI,[26],15.7 µM and > 100 µM
same,GI50,[27],5.24 µM and 12.6 µM
same,TGI,[27],21.7 µM and > 100 µM
same,TGI,[28],23.2 µM and > 100 µM
same,GI50,[29],4.91 µM and 2.37 µM
same,TGI,[29],34.3 µM and > 100 µM
same,TGI,[30],9.42 µM
same,GI50,[33],10.1 µM and 3.6 µM
same,TGI,[33],24.9 µM and > 100 µM
same,TGI,[35],16.5 µM and > 100 µM
same,GI50,[37],5.83 µM and 41.2 µM
same,TGI,[37],46.1 µM and > 100 µM
same,GI50,[38],11.7 µM and 3.76 µM
same,TGI,[38],28.3 µM and > 100 µM
same,TGI,[39],13 µM and > 100 µM
same,GI50,[40],19.6 µM
same,TGI,[40],> 100 µM
same,TGI,[42],11.9 µM and > 100 µM
same,GI50,[43],2.46 µM and 10.9 µM
same,TGI,[44],33.9 µM
same,TGI,[45],17.6 µM and > 100 µM
same,TGI,[47],16.4 µM and 18.7 µM
same,TGI,[57],10 µM and > 100 µM
same,GI50,[48],5.09 µM and 24.8 µM
same,TGI,[48],18.8 µM and > 100 µM
same,TGI,[51],17.3 µM and > 100 µM
same,TGI,[52],> 100 µM
same,TGI,[53],28.1 µM and > 100 µM
same,TGI,[55],33.2 µM and > 100 µM
same,GI50,[56],21.7 µM and > 100 µM
same,TGI,[56],54.2 µM and > 100 µM
COC(=O)[C@]1(c2cc3ccccc3n2S(=O)(=O)c2ccccc2)CC2CN(C(=O)OCc3ccccc3)C1C1OC(C)(C)OC21 (some centres not stated),TGI,[1],> 100 µM
same,TGI,[3],> 100 µM
same,TGI,[4],> 100 µM
same,TGI,[5],> 100 µM
same,TGI,[6],> 100 µM
same,TGI,[7],> 100 µM
same,TGI,[8],> 100 µM
same,TGI,[9],> 100 µM
same,TGI,[10],> 100 µM
same,TGI,[11],> 100 µM
same,TGI,[12],> 100 µM
same,TGI,[13],> 100 µM
same,TGI,[14],> 100 µM
same,TGI,[15],> 100 µM
same,TGI,[16],> 100 µM
same,TGI,[17],> 100 µM
same,TGI,[18],> 100 µM
same,TGI,[19],> 100 µM
same,TGI,[21],> 100 µM
same,TGI,[22],> 100 µM
same,TGI,[23],> 100 µM
same,TGI,[24],> 100 µM
same,TGI,[25],> 100 µM
same,TGI,[26],> 100 µM
same,TGI,[27],> 100 µM
same,TGI,[28],> 100 µM
same,TGI,[29],> 100 µM
same,TGI,[30],> 100 µM
same,TGI,[31],> 100 µM
same,TGI,[32],> 100 µM
same,TGI,[33],> 100 µM
same,TGI,[34],> 100 µM
same,TGI,[35],> 100 µM
same,TGI,[36],> 100 µM
same,TGI,[37],> 100 µM
same,TGI,[38],> 100 µM
same,TGI,[39],> 100 µM
same,TGI,[40],> 100 µM
same,TGI,[41],> 100 µM
same,TGI,[43],> 100 µM
same,TGI,[45],> 100 µM
same,TGI,[46],> 100 µM
same,TGI,[47],> 100 µM
same,TGI,[57],> 100 µM
same,TGI,[48],> 100 µM
same,TGI,[50],> 100 µM
same,TGI,[52],> 100 µM
same,TGI,[53],> 100 µM
same,TGI,[54],> 100 µM
same,TGI,[55],> 100 µM
same,TGI,[58],> 100 µM
same,TGI,[56],> 100 µM

# From PubChem BioAssay (NCI)
